US20260072027A1, “Peptides And Method” (Queen Mary University of London, priority 2022, published 2026)
Where no end group is shown, it is not given here.

Columns and labels:
serum IgG autoantibodies = assay: ELISA for autoantibody detection: serum antibody binding to native and oxPTM insulin peptides; parameters: species or system human; conditions: for % binders, Healthy controls / Mean ± SEM (absorbance, OD), Healthy controls / % binders, Type 1 diabetes: Study cohort 1; for % binders, Type 1 diabetes: cut-off = mean of healthy controls to Nt-INSP plus 3 SEM; for Mean ± SEM (absorbance, OD), Type 1 diabetes: Study cohort 1 sera
Procedure: ELISA for autoantibody detection. The ELISA analysis of Nt-INS and oxPTM-INS autoantibodies was performed as previously described [18](detailed in ESM methods, ELISA assay for antibody detection).
Statistical analyses. Statistical analyses were performed using Prism Software 9.0 (GraphPad, San Diego, CA, USA). Cut-off points of positivity (binders) in the antibody ELISA for each peptide were defined by the mean of optical absorbance (O.D) of healthy controls to the corresponding Nt-INSP plus three times the standard error of the mean (SEM). Specificity and sensitivity were evaluated by receiver operating characteristic (ROC) curve analysis. Area under the curve (AUC) is reported as absolute value and was tested for equality according to DeLong et al. Differences in antibody levels and T-cell stimulation indices (SI) between groups were tested by the One way ANOVA or Student's t-tests as appropriate. Correlation analyses were tested by Pearson or Spearman's test, as appropriate. Categorical analyses were performed by Chi-square or McNemar's tests, as appropriate. For each set of experiments, p values were adjusted for multiple comparison using the Holm-Sidak's test. Hierarchical cluster and Principal Component Analysis (PCA) was done using Clustvis software (https://biit.cs.ut.ee/clustvis/) and Prism Software 9.0, respectively.
Antibody reactivity of type 1 diabetes serum against the candidate oxPTM-INSP. Identified peptide candidates were synthesised and exposed to either HOCl or ^●OH to generate oxPTM-INSPs that were first assessed by TOF-MS/ES+TIC to confirm modification (FIG. 17). Antibody response against native INSPs (Nt-INSPs) and oxPTM-INSPs was evaluated by ELISA using sera from Study cohort 1.
ESM Methods ELISA assay for antibody detection. The ELISA analysis of native (Nt-INS) and modified insulin (oxPTM-INS) was performed as previously described. Briefly, the ELISA plate was coated overnight at 4° C. with 100 μl per well of modified or native insulin in 0.05 M carbonate/bicarbonate buffer pH 9.6 at 10 μg/ml. The next day, the plates were washed 3 times with 0.1% Tween PBS, followed by blocking for 2 hours at room temperature with 200 μl per well of 5% BSA in 0.1% Tween PBS. After washing, 100 μl of 1:200-diluted serum samples in 5% BSA-0.1% Tween PBS were added for additional 2 hours incubation. ELISA plates were then washed 3 times with 0.1% Tween PBS followed by probing with anti-human IgG horse radish peroxidase conjugated (HRP, Sigma) at 1:1,000 dilution in 5% BSA-0.1% Tween PBS for another 1.5 hours incubation. The ELISA plates were washed, and 100 μg/ml TMB substrate in 0.1M sodium acetate pH 6.0 plus 2 μl/10 ml of H2O2, were added. Subsequently, the reaction was stopped with 20% v/v sulphuric acid. The optical density (O.D.) was measured at 450 nm using a GENios plate reader and Magellan software (TECAN, Dorset, UK).

CD4+ T-cells (PBMCs) = assay: In vitro peptide stimulation and T-cell proliferation assay, CD4+; type: cell-based, human
Excerpt: (§1) In vitro peptide stimulation and T-cell proliferation assay. Peripheral blood mononuclear cells (PBMCs) were freshly isolated from type 1 diabetes and healthy individuals using Ficoll-Hypaque density gradient centrifugation. PBMCs were labelled with the fluorescent dye CellTrace Violet (Invitrogen, Thermo Fisher Scientific) and cultured (2×10^5 cells/well) in round-bottom 96-well plates (Falcon, Becton Dickinson) with RPMI-1640 medium (Gibco, Thermo Fisher Scientific) supplemented with 5% autologous plasma in the presence or not of insulin peptides (20 μg/ml); PPD (10 μg/ml) and anti-CD3 (0.1 μg/ml; clone OKT3) were used as positive control. Two scrambled peptides: […] (SEQ ID NO: 17), […] (SEQ ID NO: 18), and the Exendin 9-39 fragment were used as negative controls. After 7 days, PBMCs were stained with PE-Cy7 anti-CD8 (clone RPA-T8, BD Pharmingen) and FITC anti-CD3 (clone UCHT1, BD Pharmingen). Samples were analysed by using a FACSCanto II (BD Bioscience) to evaluate T-cell proliferation measured as CellTrace Violet dilution. Cytofluorimetric analyses were performed using FlowJo Software (FlowJo, LLC). The results were given as stimulation index (SI), calculated as percentage of stimulated T-cell subset proliferation/percentage of unstimulated T-cell subset proliferation. Assay for detection of peptide specific T cells subsets was done as previously described (detailed in ESM methods, Assay for detection of peptide specific T cells)
(§2) T-cell stimulation with oxPTM-INSPs. To evaluate the immune cell response against the oxPTM-INSPs, we performed CD4+ and CD8+ T cells proliferation experiments using freshly isolated PBMCs (Study cohort 2, Table 1). Response was calculated as stimulatory index (SI) over unstimulated T-cells.

[1] = test system: autoantibodies to oxPTM-INS; assay: Competitive displacement ELISA, plate coated with oxidised insulin; type: binding, human; conditions: for inhibition of type 1 diabetes serum binding to oxPTM-INS (in words): sera pre-incubated with peptide competitor
Procedure: A competitive displacement assay was performed to map the exact epitope, namely the exact amino acid sequence binding specificities and to test the binding to native peptides versus oxidised insulin peptides. The binding to the peptide was done by direct ELISA on the native or modified peptides or by competition ELISA. Initially native synthetic peptide was oxidised by exposing to 0.05 mM CuCl2; 90 mM H2O2; 10 mM NaOCl. Native and modified peptides were fractionated by AKTA to evaluated changes in molecular profile. AKTA fractions were then tested by ELISA for reactivity (FIGS. 2 and 3). We next perform competition ELISA with the native peptides and peptides exposed to 0.05 mM CuCl2; 90 mM H2O2; 10 mM NaOCl. Serum samples were pre-incubated with either native insulin peptides or oxidised insulin peptides. Finally, based on the amino acid sequence of the identified peptides we predicted the amino acids that would be oxidised by ^●OH and HOCl and designed synthetic peptides that contain the oxidised amino acids in the synthesis. Synthetic peptides were produced by standard commercially available methods, specifically by Peptide Protein Research Ltd. Briefly, peptide synthesis was performed by automated solid phase peptide synthesis (SPPS), which was followed by purification. Each individual amino acid was added to the growing chain according to the sequence. Where specified, dihydroxyphenylalanine was added to replace Tyr or cysteate were added to replace Cys. Similarly, these peptides were tested by competition ELISA. The table below describe the different competition ELISA performed:
Serum samples from children with type 1 diabetes were pre-incubated with the synthetic peptides before they were added to the native insulin or oxidised that were previously coated on the ELISA plate. If the antibodies in the serum sample bind to the peptide they will no longer bind to the insulin or oxidised insulin on the plate-competition ELISA. 1:200 dilutions of serum samples from T1D serum samples were pre-incubated for 2 hr at room temperature with the various peptides as shown in the table above. After incubation, serum/peptide mix was added to the ELISA plate previously coated overnight with either native insulin or oxidised insulin for an additional 2 hr incubation. Plates were then washed in a plate washer three times with PBS 0.05% tween. After washing, 100 ul of anti-human IgG diluted 1:1000 in 1% milk-PBS 0.05% tween were added for additional 1 hour and 30 min incubation. After washing, ELISA was developed by adding 100 ul of TMB (10 mg/ml in DMSO) in 10 ml of 0.1 M sodium acetate plus 2 ul of H2O2. Reaction was stopped by adding 0.5 M H2SO4 (usually 20 min for insulin ELISA).
To assess the binding specificity of serum samples to identified peptides, a competitive ELISA was performed. The ELISA was carried out following the method described above, except that the serum samples were pre-incubated for 2 h with and without 10 μg/ml peptides as competitors, before adding the serum samples to the insulin coated ELISA plate.

CD8+ T-cells (PBMCs) = assay: In vitro peptide stimulation and T-cell proliferation assay, CD8+; type: cell-based, human
Excerpt: as §1, §2

% binders, Healthy controls (serum IgG autoantibodies; in house modifications)	Mean ± SEM (absorbance, OD), Healthy controls (serum IgG autoantibodies; in house modifications)	% binders, Type 1 diabetes (serum IgG autoantibodies; in house modifications)	% binders, Healthy controls (serum IgG autoantibodies; in silico modifications)	Mean ± SEM (absorbance, OD), Healthy controls (serum IgG autoantibodies; in silico modifications)	% binders, Type 1 diabetes (serum IgG autoantibodies; in silico modifications)	Mean ± SEM (absorbance, OD), Type 1 diabetes (serum IgG autoantibodies; in house modifications)	Mean ± SEM (absorbance, OD), Type 1 diabetes (serum IgG autoantibodies; in silico modifications)	inhibition of type 1 diabetes serum binding to oxPTM-INS (in words) [1]	Substance	CD4+ T-cell response, subjects with SI > 3 (%) (CD4+ T-cells (PBMCs); Type 1 diabetes (N = 18))	further results
19%	0.333 ± 0.030	42%	9%	0.143 ± 0.007	49%	0.405 ± 0.029	0.242 ± 0.019	not	SLYQLENYCN (Ac-SLYQLENYCN) [insulin A:12-21 native peptide]	(27.8%)	CD4+ T-cell response, subjects with SI > 1 (%) (CD4+ T-cells (PBMCs); Controls (N = 11)): (54.5%); CD4+ T-cell response, subjects with SI > 3 (%) (CD4+ T-cells (PBMCs); Controls (N = 11)): (18.2%); CD4+ T-cell response, subjects with SI > 5 (%) (CD4+ T-cells (PBMCs); Controls (N = 11)): (9.1%); CD4+ T-cell response, subjects with SI > 10 (%) (CD4+ T-cells (PBMCs); Controls (N = 11)): (0.0%); CD4+ T-cell response, subjects with SI > 1 (%) (CD4+ T-cells (PBMCs); Type 1 diabetes (N = 18)): (72.2%); CD4+ T-cell response, subjects with SI > 5 (%) (CD4+ T-cells (PBMCs); Type 1 diabetes (N = 18)): (21.1%); CD4+ T-cell response, subjects with SI > 10 (%) (CD4+ T-cells (PBMCs); Type 1 diabetes (N = 18)): (16.7%); CD8+ T-cell response, subjects with SI > 1 (%) (CD8+ T-cells (PBMCs); Controls (N = 11)): (36.4%); CD8+ T-cell response, subjects with SI > 3 (%) (CD8+ T-cells (PBMCs); Controls (N = 11)): (36.4%); CD8+ T-cell response, subjects with SI > 5 (%) (CD8+ T-cells (PBMCs); Controls (N = 11)): (36.4%); CD8+ T-cell response, subjects with SI > 10 (%) (CD8+ T-cells (PBMCs); Controls (N = 11)): (18.2%); CD8+ T-cell response, subjects with SI > 1 (%) (CD8+ T-cells (PBMCs); Type 1 diabetes (N = 18)): (50.0%); CD8+ T-cell response, subjects with SI > 3 (%) (CD8+ T-cells (PBMCs); Type 1 diabetes (N = 18)): (22.2%); CD8+ T-cell response, subjects with SI > 5 (%) (CD8+ T-cells (PBMCs); Type 1 diabetes (N = 18)): (11.1%); CD8+ T-cell response, subjects with SI > 10 (%) (CD8+ T-cells (PBMCs); Type 1 diabetes (N = 18)): (5.6%)
–	–	–	–	–	–	–	–	not	Nt-INSP-6: native insulin peptide 6; printed as ERGFFYTPKT (SEQ ID NO: 5) and, in Tables 5 and 6, ERGFFYTPKTR (SEQ ID NO: 8)	27.8%	type 1 diabetes binders (IgG autoantibody reactivity) (serum IgG autoantibodies; Study cohort 2, N = 18): none
10%	0.263 ± 0.023	66%	16%	0.263 ± 0.020	63%	0.435 ± 0.014	0.423 ± 0.012	–	ERGFFYTPKT (Ac-ERGFFYTPKT) [insulin B:21-30 native peptide]	–	reduced binding to oxidised whole insulin ([1]; type 1 diabetes sera pre-incubated with peptide): 35-70%
